Where two headings read alike, the source gives them in different places.
Legend:
[1] = system: HT-29 human colon adenocarcinoma cells; details: MTT assay; cited from earlier work
Excerpt: (§1) Table 1 Comparative study of cytotoxic effects and cardiotoxicity elicited by GnRH-based antitumor compounds (1–15) and reference substances (AN-152, Dox, Dau, Mtx). IC50 values show antitumor cytotoxic characteristics of the conjugates in human breast cancer (MCF-7), human colorectal adenocarcinoma (HT-29) and human acute monocytic leukemia (MM6) derived cell lines as representative tumor cells.

[2] = system: MCF-7 human breast adenocarcinoma cells; details: MTT assay; cited from earlier work
Excerpt: as §1

[3] = system: human acute monocytic leukemia (MonoMac6) cells; details: cited from earlier work
Excerpt: as §1

[4] = system: human umbilical vein endothelial cells (HUVEC); assay: Impedimetric measurement (xCELLigence SP), delta slope, HUVEC; details: for delta slope (DS), short-term / delta slope (DS), long-term: HUVEC, three parallels; for delta slope (DS), short-term: 0–2 h; for delta slope (DS), long-term: 0–72 h; for Cardiotoxicity, HUVEC: grade +++/++/+/0, key not given, summary of impedimetric cytotoxicity; for cytotoxic effect on HUVEC, result in words: long-term (0–72 h), 10^−8–10^−6 mol/L, impedimetry, one-way ANOVA
Excerpt: (§2) The main objective of the study reported here was to evaluate the in vitro cardiotoxic effects (as undesired side effects) of […] GnRH-III-based conjugates containing doxorubicin, daunorubicin and methotrexate on two essential target cells of cardiovascular diseases: vascular endothelial cells and cardiomyocytes. The rate of cytotoxicity (antitumor effect) vs cardiotoxicity (toxic effects on cardiomyocytes and vascular endothelium) is an important factor for efficient drug development for targeted tumor therapy with minimized side effects. The technique used in this work – impedimetry – is a dedicated one for real-time monitoring of cells to distinguish short-term (0–2 hours) and long-term (0–72 hours) effects elicited by the drug or carrier–drug conjugates. The basic theory of impedimetry is that proliferation/viability of cells is well detectable by monitoring of the electric impedance (Z) in an AC environment, due to the electric insulator character of intact surface membranes composed of the phospholipid bilayer. […] While cell physiological responses of short-term exposures result in characteristic changes of cell morphology (e.g., spreading), long-term effects characteristically influence in particular the proliferation of cells, and therefore the cytotoxic effects. The presented dimensionless values of delta slope (DS) measure the difference between the slope of the curve corresponding to the treatment and that of the control curve in impedimetric recordings, the negative signs refer to the relative values to the identical control.
(§3) Experimental part – Cellular samples
(§4) In the present study, GnRH conjugates containing anti-tumour drugs (e.g., daunorubicin, doxorubicin) were investigated in order to evaluate whether the conjugates exert a decrease cardiotoxic effect compared to that of the free drugs. The cardiac myocytes and the vascular endothelium cells are the most frequently detected target cells of antitumor compounds and they are employed in our study. Human umbilical vein endothelial cells (HUVEC; Promocell, Biomedica, Wien, Austria) were cultured in Endothelial Cell Growth Medium with Endothelial Cell Growth Supplement Mix (Promocell, Biomedica, Wien, Austria) and 100 µg/mL penicillin/streptomycin. Primary human cardiac myocytes (HCM; Promocell, Biomedica, Wien, Austria) were cultured in Myocyte Growth Medium (Promocell, Biomedica, Wien, Austria).
(§5) Impedimetric measurements
(§6) The xCELLigence SP system was used for impedimetric measurements. The bottom of the wells of a 96-well E-plate is installed with a golden electrode array that constitutes the adhesion surface. Adhering cells – acting as insulators – change the electric impedance measured on the electrodes. The measured impedance change is in direct correlation with the number of adhering cells and the extent of adhesion. The results of impedance change are given in the form of Cell Index (CI) calculated by the xCELLigence system according to the […]
(§7) where Zt is the measured impedance in a time point, Zb is the background impedance and F is an inbuilt factor (F = 15 at 10 kHz) depending on the frequency of the alternating current. The measurements took place in an incubator holding a 37 °C temperature and 5% carbon-dioxide […]
(§8) The experiments started with a measurement of baseline impedance for 1 hour. After that, the cells (10^4 cells/well) were added to the wells and allowed to adhere to the electrodes. When the adhering cells reached a balanced state in the wells, signified by the impedance curves […]
(§9) free drugs at 10−12 – 10−6 M and the conjugates at 10−8 – 10−6 M final concentrations were […]
(§10) added to the wells. The changes in impedance were measured for at least 72 hours. For each measurement three parallels were measured.
(§11) The evaluation of responses followed the previously described strategy: acute effects of compounds were evaluated as a characteristic morphology of the curves in the 0–2 hours

[5] = system: primary human cardiac myocytes (HCM); details: for delta slope (DS), short-term / delta slope (DS), long-term: HCM, three parallels; for delta slope (DS), short-term: 0–2 h; for delta slope (DS), long-term: 0–72 h; for Cardiotoxicity, HCM: grade +++/++/+/0, key not given, summary of impedimetric cytotoxicity; for cytotoxic effect on HCM, result in words: long-term (0–72 h), 10^−8–10^−6 mol/L (free drugs 10^−12–10^−6 mol/L), impedimetry, one-way ANOVA
Excerpt: as §2, §3, §4, §5, §6, §7, §8, §9, §10, §11

GnRH-III(Dox-glut-GFLG) [conjugate 2]
IC50 [1]: > 100 µM
IC50 [2]: > 100 µM
IC50 [3]: 0.089 ± 0.02 µM
delta slope (DS), short-term ([4]; Table S2a, 10^-6 mol/L): 0.058
delta slope (DS), short-term ([4]; Table S2a, 10^-7 mol/L): 0.016
delta slope (DS), short-term ([4]; Table S2a, 10^-8 mol/L): -0.004
delta slope (DS), long-term ([4]; Table S2a, 10^-6 mol/L, listed as 2): -0.042
delta slope (DS), long-term ([4]; Table S2a, 10^-6 mol/L, listed as GnRH-III(Dox-glut-GFLG)): −0.042
delta slope (DS), long-term ([4]; Table S2a, 10^-7 mol/L, listed as 2): -0.017
delta slope (DS), long-term ([4]; Table S2a, 10^-7 mol/L, listed as GnRH-III(Dox-glut-GFLG)): −0.017
delta slope (DS), long-term ([4]; Table S2a, 10^-8 mol/L): -0.002
delta slope (DS), short-term ([5]; Table S2b, 10^-6 mol/L): 0.008
delta slope (DS), short-term ([5]; Table S2b, 10^-7 mol/L): 0.003
delta slope (DS), short-term ([5]; Table S2b, 10^-8 mol/L): 0.009
delta slope (DS), long-term ([5]; Table S2b, 10^-6 mol/L): −0.019
delta slope (DS), long-term ([5]; Table S2b, 10^-7 mol/L): −0.004
delta slope (DS), long-term ([5]; Table S2b, 10^-8 mol/L): 0.001

GnRH-III(Dox=Aoa-GFLG) [conjugate 3]
IC50 [1]: 46.1 ± 6.1 µM
IC50 [2]: 5.4 ± 1.9 µM
IC50 [3]: 0.43 ± 0.04 µM
delta slope (DS), short-term ([4]; Table S2a, 10^-6 mol/L): -0.006
delta slope (DS), short-term ([4]; Table S2a, 10^-7 mol/L): -0.003
delta slope (DS), short-term ([4]; Table S2a, 10^-8 mol/L): -0.002
delta slope (DS), long-term ([4]; Table S2a, 10^-6 mol/L, listed as 3): -0.009
delta slope (DS), long-term ([4]; Table S2a, 10^-6 mol/L, listed as GnRH-III(Dox=Aoa-GFLG)): −0.009
delta slope (DS), long-term ([4]; Table S2a, 10^-7 mol/L): -0.001
delta slope (DS), long-term ([4]; Table S2a, 10^-8 mol/L): 0.0004
delta slope (DS), short-term ([5]; Table S2b, 10^-6 mol/L): -0.002
delta slope (DS), short-term ([5]; Table S2b, 10^-7 mol/L): 0.001
delta slope (DS), short-term ([5]; Table S2b, 10^-8 mol/L): 0.004
delta slope (DS), long-term ([5]; Table S2b, 10^-6 mol/L): −0.007
delta slope (DS), long-term ([5]; Table S2b, 10^-7 mol/L): -0.001
delta slope (DS), long-term ([5]; Table S2b, 10^-8 mol/L): 0.002

GnRH-III(Mtx-K(Dau=Aoa)) [conjugate 13]
IC50 [1]: 5.6 ± 3 µM
IC50 [2]: 5.4 ± 0.7 µM
IC50 [3]: 1.41 ± 0.39 µM
delta slope (DS), short-term ([4]; Table S5a, 10^-6 mol/L): 0.013
delta slope (DS), short-term ([4]; Table S5a, 10^-7 mol/L): 0.002
delta slope (DS), short-term ([4]; Table S5a, 10^-8 mol/L): 0.001
delta slope (DS), long-term ([4]; Table S5a, 10^-6 mol/L): 0.001
delta slope (DS), long-term ([4]; Table S5a, 10^-7 mol/L): 0.001
delta slope (DS), long-term ([4]; Table S5a, 10^-8 mol/L): -0.001
Cardiotoxicity, HUVEC [4]: 0
cytotoxic effect on HUVEC, result in words [4]: no significant effect was detected
delta slope (DS), short-term ([5]; Table S5b, 10^-6 mol/L): -0.003
delta slope (DS), short-term ([5]; Table S5b, 10^-7 mol/L): 0.002
delta slope (DS), short-term ([5]; Table S5b, 10^-8 mol/L): -0.002
delta slope (DS), long-term ([5]; Table S5b, 10^-6 mol/L): -0.001
delta slope (DS), long-term ([5]; Table S5b, 10^-7 mol/L): -0.001
delta slope (DS), long-term ([5]; Table S5b, 10^-8 mol/L): -0.001
Cardiotoxicity, HCM [5]: 0
cytotoxic effect on HCM, result in words [5]: none of the two investigated mixed drug–GnRH-III conjugates (13 and 15) exerted any significant cytotoxic effect

[^4Lys(Dau=Aoa)]-GnRH-III(Dau=Aoa) [conjugate 14]
IC50 [1]: 6.8 ± 1 µM
IC50 [2]: 2.9 ± 0.9 µM
IC50 [3]: 0.513 ± 0.04 µM
delta slope (DS), short-term ([4]; Table S3a, 10^-6 mol/L): 0.006
delta slope (DS), short-term ([4]; Table S3a, 10^-7 mol/L): -0.005
delta slope (DS), short-term ([4]; Table S3a, 10^-8 mol/L): 0.002
delta slope (DS), long-term ([4]; Table S3a, 10^-6 mol/L): -0.001
delta slope (DS), long-term ([4]; Table S3a, 10^-7 mol/L): -0.001
delta slope (DS), long-term ([4]; Table S3a, 10^-8 mol/L): 0.001
Cardiotoxicity, HUVEC [4]: 0
cytotoxic effect on HUVEC, result in words [4]: completely lost the cytotoxic effect
delta slope (DS), short-term ([5]; Table S3b, 10^-6 mol/L): -0.001
delta slope (DS), short-term ([5]; Table S3b, 10^-7 mol/L): -0.002
delta slope (DS), short-term ([5]; Table S3b, 10^-8 mol/L): 0.001
delta slope (DS), long-term ([5]; Table S3b, 10^-6 mol/L): -0.002
delta slope (DS), long-term ([5]; Table S3b, 10^-7 mol/L): -0.001
delta slope (DS), long-term ([5]; Table S3b, 10^-8 mol/L): -0.0011
cytotoxic effect on HCM, result in words [5]: completely lost their cytotoxic effect

[^4Lys(Mtx)]-GnRH-III(Dau=Aoa) [conjugate 15]
IC50 [1]: 3.6 ± 1.5 µM
IC50 [2]: 5.8 ± 1.1 µM
IC50 [3]: > 1 µM
delta slope (DS), short-term ([4]; Table S5a, 10^-6 mol/L): 0.006
delta slope (DS), short-term ([4]; Table S5a, 10^-7 mol/L): -0.002
delta slope (DS), short-term ([4]; Table S5a, 10^-8 mol/L): 0.006
delta slope (DS), long-term ([4]; Table S5a, 10^-6 mol/L): -0.001
delta slope (DS), long-term ([4]; Table S5a, 10^-7 mol/L): -0.001
delta slope (DS), long-term ([4]; Table S5a, 10^-8 mol/L): 0.003
Cardiotoxicity, HUVEC [4]: 0
cytotoxic effect on HUVEC, result in words [4]: no significant cytotoxic effect
delta slope (DS), short-term ([5]; Table S5b, 10^-6 mol/L): -0.001
delta slope (DS), short-term ([5]; Table S5b, 10^-7 mol/L): -0.002
delta slope (DS), short-term ([5]; Table S5b, 10^-8 mol/L): -0.003
delta slope (DS), long-term ([5]; Table S5b, 10^-6 mol/L): -0.001
delta slope (DS), long-term ([5]; Table S5b, 10^-7 mol/L): 0.001
delta slope (DS), long-term ([5]; Table S5b, 10^-8 mol/L): -0.001
Cardiotoxicity, HCM [5]: 0
cytotoxic effect on HCM, result in words [5]: none of the two investigated mixed drug–GnRH-III conjugates (13 and 15) exerted any significant cytotoxic effect
